In patent US12516056B2, “Compounds for inhibition of janus kinase 1” (MANKIND PHARMA LTD., priority 2019, dated 2026):

Columns and labels:
[1] = molecular target: T1, Recombinant JAK3 (Homo sapiens, UniProt P52333); assay: JAK biochemical assay (LANCE Ultra TR-FRET), JAK3; settings: recombinant JAK3, TR-FRET; read-out: Biochemical Assay (μM) JAK3
T1 construct: purchased Carna Biosciences
T1 sequence (P52333 1-1124): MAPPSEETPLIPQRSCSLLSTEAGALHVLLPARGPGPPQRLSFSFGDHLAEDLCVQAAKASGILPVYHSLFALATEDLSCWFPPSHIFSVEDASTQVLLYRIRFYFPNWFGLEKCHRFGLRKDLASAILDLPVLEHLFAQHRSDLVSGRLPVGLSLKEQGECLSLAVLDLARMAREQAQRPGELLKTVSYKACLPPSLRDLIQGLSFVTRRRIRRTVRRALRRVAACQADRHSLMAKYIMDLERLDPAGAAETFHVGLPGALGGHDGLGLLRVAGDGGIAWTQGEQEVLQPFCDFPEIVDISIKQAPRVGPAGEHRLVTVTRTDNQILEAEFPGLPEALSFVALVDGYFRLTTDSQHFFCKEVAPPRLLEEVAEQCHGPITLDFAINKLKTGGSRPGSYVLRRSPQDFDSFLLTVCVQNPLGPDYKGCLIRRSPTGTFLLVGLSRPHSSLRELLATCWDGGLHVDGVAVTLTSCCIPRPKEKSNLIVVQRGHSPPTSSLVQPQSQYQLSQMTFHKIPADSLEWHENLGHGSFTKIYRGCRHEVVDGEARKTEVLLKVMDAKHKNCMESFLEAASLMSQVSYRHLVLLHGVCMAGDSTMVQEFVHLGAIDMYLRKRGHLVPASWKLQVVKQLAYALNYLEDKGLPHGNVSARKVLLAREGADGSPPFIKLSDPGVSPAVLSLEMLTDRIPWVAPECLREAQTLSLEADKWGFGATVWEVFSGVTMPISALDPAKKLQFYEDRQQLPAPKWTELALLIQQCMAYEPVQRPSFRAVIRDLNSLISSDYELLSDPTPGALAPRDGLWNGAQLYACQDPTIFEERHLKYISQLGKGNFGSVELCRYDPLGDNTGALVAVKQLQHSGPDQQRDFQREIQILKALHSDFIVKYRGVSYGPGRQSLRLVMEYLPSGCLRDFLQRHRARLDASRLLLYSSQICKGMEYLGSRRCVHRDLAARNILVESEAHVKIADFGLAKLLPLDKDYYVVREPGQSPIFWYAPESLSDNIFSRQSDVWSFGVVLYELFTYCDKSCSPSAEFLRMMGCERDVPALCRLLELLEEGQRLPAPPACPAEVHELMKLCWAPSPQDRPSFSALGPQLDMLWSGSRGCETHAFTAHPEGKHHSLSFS
Method in brief: (§1)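 TR-FRET read-out of ULight substrate phosphorylation by recombinant kinase gives % inhibition relative to vehicle. The assay buffer is HEPES pH 7.5 with EGTA, MgCl2, DTT and Tween-20.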

[2] = molecular target: T2, Recombinant JAK2 (Homo sapiens, UniProt O60674); assay: JAK biochemical assay (LANCE Ultra TR-FRET), JAK2; settings: recombinant JAK2, TR-FRET; read-out: Biochemical Assay (μM) JAK2
T2 construct: purchased Carna Biosciences
T2 sequence (O60674 whole entry): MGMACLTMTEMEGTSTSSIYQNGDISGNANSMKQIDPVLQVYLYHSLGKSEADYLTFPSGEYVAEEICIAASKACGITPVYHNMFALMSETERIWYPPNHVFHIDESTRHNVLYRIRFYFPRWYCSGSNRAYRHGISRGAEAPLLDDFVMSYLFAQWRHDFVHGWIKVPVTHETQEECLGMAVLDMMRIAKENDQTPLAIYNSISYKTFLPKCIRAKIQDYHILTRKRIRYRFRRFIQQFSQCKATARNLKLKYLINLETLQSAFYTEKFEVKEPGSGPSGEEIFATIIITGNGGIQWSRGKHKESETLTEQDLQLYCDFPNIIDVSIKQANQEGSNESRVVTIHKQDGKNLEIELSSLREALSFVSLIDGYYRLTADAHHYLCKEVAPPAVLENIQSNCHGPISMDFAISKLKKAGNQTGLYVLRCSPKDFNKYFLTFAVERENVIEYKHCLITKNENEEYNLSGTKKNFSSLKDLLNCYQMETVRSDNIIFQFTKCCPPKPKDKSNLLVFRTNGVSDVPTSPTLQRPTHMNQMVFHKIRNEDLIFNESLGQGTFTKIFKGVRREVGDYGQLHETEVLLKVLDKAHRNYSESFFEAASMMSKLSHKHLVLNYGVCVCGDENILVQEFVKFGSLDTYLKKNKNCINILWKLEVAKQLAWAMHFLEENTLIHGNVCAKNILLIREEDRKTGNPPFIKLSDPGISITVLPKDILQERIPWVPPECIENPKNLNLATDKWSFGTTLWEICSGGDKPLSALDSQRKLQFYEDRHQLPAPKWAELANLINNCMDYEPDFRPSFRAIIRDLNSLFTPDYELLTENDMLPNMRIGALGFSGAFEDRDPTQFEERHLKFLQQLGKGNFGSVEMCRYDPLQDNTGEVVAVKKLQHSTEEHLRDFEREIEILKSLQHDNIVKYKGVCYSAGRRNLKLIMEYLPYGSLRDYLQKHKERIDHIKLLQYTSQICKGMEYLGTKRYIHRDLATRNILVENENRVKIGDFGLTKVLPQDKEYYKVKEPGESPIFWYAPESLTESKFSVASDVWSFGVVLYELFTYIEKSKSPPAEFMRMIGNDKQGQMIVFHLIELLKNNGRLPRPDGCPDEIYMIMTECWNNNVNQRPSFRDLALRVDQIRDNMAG
Method in brief: as §1

[3] = system: STAT3 phosphorylation by IL-6 in TF-1 cells; assay: JAK cellular assay: STAT3 phosphorylation by IL-6 in TF-1 cells (HTRF); assay type: cell-based; settings: Homo sapiens, TF-1, TF-1 cells, IL-6 30 ng/ml, pSTAT3 HTRF; read-out: Cell Based Assay (μM) TF-1/IL-6/pSTAT3
Method in brief: (§2)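 TF-1 cells starved overnight in low-serum OptiMEM, then 120,000/well in RPMI, preincubated with compound 30 min at 37 °C (0.2% DMSO final). Stimulation 20 min with IL-6 30 ng/ml (pSTAT3) or GMCSF 5 ng/ml (pSTAT5); lysate phospho-STAT by HTRF, unstimulated background subtracted.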

[4] = system: STAT5 phosphorylation by GMCSF in TF-1 cells; assay: JAK cellular assay: STAT5 phosphorylation by GMCSF in TF-1 cells (HTRF); assay type: cell-based; settings: Homo sapiens; TF-1 cells, GMCSF 5 ng/ml, pSTAT5 HTRF; read-out: Cell Based Assay (μM) TF-1/GMCSF/pSTAT5
Method in brief: as §2

[5] = molecular target: T3, Recombinant JAK1 (Homo sapiens, UniProt P23458); assay: JAK biochemical assay (LANCE Ultra TR-FRET), JAK1; settings: recombinant JAK1, TR-FRET; read-out: Biochemical Assay (μM) JAK1
T3 construct: purchased Carna Biosciences
T3 sequence (P23458 whole entry): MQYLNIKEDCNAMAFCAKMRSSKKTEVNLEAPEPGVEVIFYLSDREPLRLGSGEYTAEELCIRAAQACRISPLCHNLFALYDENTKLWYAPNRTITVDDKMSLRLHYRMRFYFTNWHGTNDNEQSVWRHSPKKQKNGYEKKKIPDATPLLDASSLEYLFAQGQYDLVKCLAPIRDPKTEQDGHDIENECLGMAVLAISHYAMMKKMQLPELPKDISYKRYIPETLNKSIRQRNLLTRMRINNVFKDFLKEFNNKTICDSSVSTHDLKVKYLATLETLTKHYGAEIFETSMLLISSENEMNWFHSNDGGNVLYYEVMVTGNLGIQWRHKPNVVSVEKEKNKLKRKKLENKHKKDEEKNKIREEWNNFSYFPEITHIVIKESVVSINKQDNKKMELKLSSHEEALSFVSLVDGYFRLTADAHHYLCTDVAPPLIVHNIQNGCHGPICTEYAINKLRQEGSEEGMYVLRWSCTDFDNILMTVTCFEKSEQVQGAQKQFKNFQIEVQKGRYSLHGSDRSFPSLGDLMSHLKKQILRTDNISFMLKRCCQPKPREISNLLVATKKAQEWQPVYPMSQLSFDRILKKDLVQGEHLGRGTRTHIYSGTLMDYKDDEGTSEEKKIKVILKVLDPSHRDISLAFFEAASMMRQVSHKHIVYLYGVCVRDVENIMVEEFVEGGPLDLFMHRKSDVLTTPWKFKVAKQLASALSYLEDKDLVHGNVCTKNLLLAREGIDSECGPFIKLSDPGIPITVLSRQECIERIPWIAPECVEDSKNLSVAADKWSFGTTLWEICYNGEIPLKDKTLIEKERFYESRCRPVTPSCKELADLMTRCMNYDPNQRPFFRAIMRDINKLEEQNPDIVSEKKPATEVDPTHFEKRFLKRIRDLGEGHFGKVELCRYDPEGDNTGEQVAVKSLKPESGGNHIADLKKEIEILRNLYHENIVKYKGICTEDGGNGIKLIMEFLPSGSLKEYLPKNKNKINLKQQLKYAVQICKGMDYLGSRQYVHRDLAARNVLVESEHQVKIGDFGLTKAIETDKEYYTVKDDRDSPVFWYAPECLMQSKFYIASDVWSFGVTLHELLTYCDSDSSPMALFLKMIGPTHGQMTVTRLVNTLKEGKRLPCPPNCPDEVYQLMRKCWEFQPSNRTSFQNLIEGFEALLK
Method in brief: as §1

[6] = molecular target: T4, Recombinant TYK2 (Homo sapiens, UniProt P29597); assay: JAK biochemical assay (LANCE Ultra TR-FRET), TYK2; settings: recombinant TYK2, TR-FRET; read-out: Biochemical Assay (μM) TYK2
T4 construct: purchased Carna Biosciences
T4 sequence (P29597 whole entry): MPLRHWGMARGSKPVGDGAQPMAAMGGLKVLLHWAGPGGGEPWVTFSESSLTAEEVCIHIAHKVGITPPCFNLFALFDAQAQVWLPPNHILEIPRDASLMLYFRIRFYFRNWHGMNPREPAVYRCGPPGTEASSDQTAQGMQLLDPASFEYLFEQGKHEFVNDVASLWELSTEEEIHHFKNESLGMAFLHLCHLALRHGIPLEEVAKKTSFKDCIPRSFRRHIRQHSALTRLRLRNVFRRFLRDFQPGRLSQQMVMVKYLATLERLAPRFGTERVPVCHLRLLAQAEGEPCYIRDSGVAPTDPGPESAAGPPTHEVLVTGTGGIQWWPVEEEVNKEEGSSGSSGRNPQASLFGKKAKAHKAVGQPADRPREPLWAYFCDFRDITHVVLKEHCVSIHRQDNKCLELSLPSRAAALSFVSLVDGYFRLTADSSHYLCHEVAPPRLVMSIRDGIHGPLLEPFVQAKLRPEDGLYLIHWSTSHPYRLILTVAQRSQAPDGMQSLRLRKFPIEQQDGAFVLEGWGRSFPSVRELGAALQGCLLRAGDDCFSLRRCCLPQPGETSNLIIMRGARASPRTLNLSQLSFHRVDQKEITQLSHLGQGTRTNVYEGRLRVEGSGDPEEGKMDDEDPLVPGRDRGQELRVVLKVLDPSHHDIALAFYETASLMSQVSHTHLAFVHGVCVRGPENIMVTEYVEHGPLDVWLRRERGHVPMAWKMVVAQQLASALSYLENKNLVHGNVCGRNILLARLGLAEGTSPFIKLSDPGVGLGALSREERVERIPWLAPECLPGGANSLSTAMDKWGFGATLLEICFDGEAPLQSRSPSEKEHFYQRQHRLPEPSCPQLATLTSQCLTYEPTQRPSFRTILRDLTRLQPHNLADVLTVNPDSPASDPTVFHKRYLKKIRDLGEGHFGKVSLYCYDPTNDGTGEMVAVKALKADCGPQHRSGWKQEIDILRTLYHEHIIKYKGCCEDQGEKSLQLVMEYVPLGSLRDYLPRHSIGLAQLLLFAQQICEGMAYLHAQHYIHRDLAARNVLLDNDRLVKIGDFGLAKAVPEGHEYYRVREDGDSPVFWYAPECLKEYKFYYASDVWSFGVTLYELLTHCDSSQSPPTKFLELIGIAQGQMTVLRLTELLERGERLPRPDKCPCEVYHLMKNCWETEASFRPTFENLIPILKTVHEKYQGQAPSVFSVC
Method in brief: as §1

Structure (SMILES) | IC50 [1] [µM] | IC50 [2] [µM] | IC50 [3] [µM] | IC50 [4] [µM] | IC50 [5] [µM] | IC50 [6] [µM]
OC(c1ccc(-n2cc(-c3ccnc4[nH]cnc34)cn2)nc1)(C1CCCCC1)C(F)(F)F (stereo not drawn) [Example 1130, 1-(6-(4-(3H-imidazo[4,5-b]pyridin-7-yl)-1H-pyrazol-1-yl)pyridin-3-yl)-1-cyclohexyl-2,2,2-trifluoroethanol] | > 0.1 | > 0.1 | > 1 | > 10 | > 0.1 | > 1
OC(Cc1ccc(-n2cc(-c3ccnc4[nH]cnc34)cn2)nc1)C(F)(F)F (stereo not drawn) [Example 1183, 3-(6-(4-(3H-imidazo[4,5-b]pyridin-7-yl)-1H-pyrazol-1-yl)pyridin-3-yl)-1,1,1-trifluoropropan-2-ol] | > 0.1 | > 0.5 | 1 | > 1 | > 0.1 | > 1
O=C(NCC(F)(F)F)n1cc(-c2ccnc3[nH]c(=O)[nH]c23)cn1 [Example 1026, N-(2,2,2-trifluoroethyl)-4-(2,3-dihydro-2-oxo-1H-imidazo[4,5-b]pyridin-7-yl)-1H-pyrazole-1-carboxamide] | 0.283 | 0.048 | > 1 | > 10 | 0.041 | 0.122
CS(=O)(=O)CC(c1ccc(-n2cc(-c3ccnc4[nH]cnc34)cn2)nc1)C(F)(F)F (stereo not drawn) [Example 1138, 7-(1-(5-(1,1,1-trifluoro-3-(methylsulfonyl)propan-2-yl)pyridin-2-yl)-1H-pyrazol-4-yl)-3H-imidazo[4,5-b]pyridine] | > 0.1 | > 0.1 | > 1 | > 10 | < 0.1 | > 1
CC(C)[C@@H](C#N)NC(=O)n1cc(-c2ccnc3[nH]c(=O)[nH]c23)cn1 [Example 1047, N-((S)-1-cyano-2-methylpropyl)-4-(2,3-dihydro-2-oxo-1H-imidazo[4,5-b]pyridin-7-yl)-1H-pyrazole-1-carboxamide] | < 0.5 | < 0.5 | 4.9 | 10 | < 0.5 | < 0.5
FC(F)(F)C(CCN1CCOCC1)c1ccc(-n2cc(-c3ccnc4[nH]cnc34)cn2)nc1 (stereo not drawn) [Example 1201, 7-(1-(5-(1,1,1-trifluoro-4-morpholinobutan-2-yl)pyridin-2-yl)-1H-pyrazol-4-yl)-3H-imidazo[4,5-b]pyridine] | < 0.1 | > 0.5 | > 0.5 | > 1 | < 0.1 | > 1
CN(CCC(c1ccc(-n2cc(-c3ccnc4[nH]cnc34)cn2)nc1)C(F)(F)F)C1CC1 (stereo not drawn) [Example 1195, N-(3-(6-(4-(3H-imidazo[4,5-b]pyridin-7-yl)-1H-pyrazol-1-yl)pyridin-3-yl)-4,4,4-trifluorobutyl)-N-methylcyclopropanamine] | < 0.1 | < 0.1 | > 0.5 | > 1 | < 0.1 | > 1
COC(c1ccc(-n2cc(-c3ccnc4[nH]cnc34)cn2)nc1)(C1CC1)C(F)(F)F (stereo not drawn) [Example 1127, 7-(1-(5-(1-cyclopropyl-2,2,2-trifluoro-1-methoxyethyl)pyridin-2-yl)-1H-pyrazol-4-yl)-3H-imidazo[4,5-b]pyridine] | > 1 | > 1 | > 1 | > 10 | > 0.5 | > 1

The next lines start with the values.

IC50 [1] [µM] | IC50 [2] [µM] | IC50 [3] [µM] | IC50 [4] [µM] | IC50 [5] [µM] | IC50 [6] [µM] | Structure (SMILES)
> 1 | < 0.5 | < 10 | > 10 | < 0.5 | < 0.5 | N#CCC(NC(=O)n1cc(-c2ccnc3[nH]c(=O)[nH]c23)cn1)C1CC1 (stereo not drawn) [Example 1051, N-(2-cyano-1-cyclopropylethyl)-4-(2,3-dihydro-2-oxo-1H-imidazo[4,5-b]pyridin-7-yl)-1H-pyrazole-1-carboxamide]
< 0.1 | < 0.1 | > 0.3 | > 1 | < 0.1 | > 0.5 | FC(F)(F)C(OCCNC1CC1)c1ccc(-n2cc(-c3ccnc4[nH]cnc34)cn2)nc1 (stereo not drawn) [Example 1197, N-(2-(1-(6-(4-(3H-imidazo[4,5-b]pyridin-7-yl)-1H-pyrazol-1-yl)pyridin-3-yl)-2,2,2-trifluoroethoxy)ethyl)cyclopropanamine]
> 0.5 | > 0.5 | > 10 | > 10 | > 0.5 | > 1 | N#CCc1ccnc(-n2cc(-c3ccnc4[nH]cnc34)cn2)c1 [Example 1118, 2-(2-(4-(3H-imidazo[4,5-b]pyridin-7-yl)-1H-pyrazol-1-yl)pyridin-4-yl)acetonitrile]
< 0.1 | < 0.1 | > 0.75 | > 1 | < 0.1 | > 0.5 | FC(F)(F)C(CNC1CC1)c1ccc(-n2cc(-c3ccnc4[nH]cnc34)cn2)nc1 (stereo not drawn) [Example 1212, N-(2-(6-(4-(3H-imidazo[4,5-b]pyridin-7-yl)-1H-pyrazol-1-yl)pyridin-3-yl)-3,3,3-trifluoropropyl)cyclopropanamine]
> 0.5 | > 0.5 | > 10 | > 10 | > 1 | > 10 | N#CC1CCN(C(=O)n2cc(-c3ccnc4[nH]cnc34)cn2)CC1 [Example 1067, 1-(4-(3H-imidazo[4,5-b]pyridin-7-yl)-1H-pyrazole-1-carbonyl)piperidine-4-carbonitrile]
< 0.1 | > 0.1 | > 1 | > 10 | < 0.1 | > 1 | CC(C#N)c1ccc(-n2cc(-c3ccnc4[nH]cnc34)cn2)nc1 (stereo not drawn) [Example 1107, 2-(6-(4-(3H-imidazo[4,5-b]pyridin-7-yl)-1H-pyrazol-1-yl)pyridin-3-yl)propanenitrile]
> 1 | < 0.5 | > 10 | > 10 | > 1 | > 0.5 | N#CC1CCN(C(=O)n2cc(-c3ccnc4[nH]cnc34)cn2)C1 (stereo not drawn) [Example 1177, 1-(4-(3H-imidazo[4,5-b]pyridin-7-yl)-1H-pyrazole-1-carbonyl)pyrrolidine-3-carbonitrile]
< 0.5 | < 0.5 | > 1 | > 10 | 0.068 | > 10 | CS(=O)(=O)Cc1ccc(-n2cc(-c3ccnc4[nH]cnc34)cn2)nc1 [Example 1080, 7-(1-(5-((methylsulfonyl)methyl)pyridin-2-yl)-1H-pyrazol-4-yl)-3H-imidazo[4,5-b]pyridine]
< 0.1 | < 0.1 | < 1 | > 10 | < 0.1 | > 0.5 | N#CCOC(c1ccc(-n2cc(-c3ccnc4[nH]cnc34)cn2)nc1)C(F)(F)F (stereo not drawn) [Example 1157, 2-(1-(6-(4-(3H-imidazo[4,5-b]pyridin-7-yl)-1H-pyrazol-1-yl)pyridin-3-yl)-2,2,2-trifluoroethoxy)acetonitrile]
> 1 | > 1 | > 10 | > 10 | > 1 | > 1 | COC(c1cccc(-n2cc(-c3ccnc4[nH]cnc34)cn2)n1)C(F)(F)F (stereo not drawn) [Example 1171, 7-(1-(6-(2,2,2-trifluoro-1-methoxyethyl)pyridin-2-yl)-1H-pyrazol-4-yl)-3H-imidazo[4,5-b]pyridine]
